One data set concerns melanin. The experiment in a line: Binding capacity of compounds to melanin. It is filed as in vitro ADME. The note with it: Sepia officinalis (cuttlefish), melanin suspension (1 mg/mL); 1 mg/mL melanin suspension in PBS pH 7.4, 2 μM compound, 2 h at 37° C.; read-out: Fu % (percentage of free drug, not bound to melanin). The essentials:
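Compound at 2 μM final incubated with 1 mg/mL Sepia melanin suspension in PBS pH 7.4 for 2 h at 37 °C with shaking; blank control in PBS with 0.1% BSA. Supernatant concentrations measured by LC-MS/MS; bound fraction from melanin versus control samples, free fraction as 100 − Fb.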

The target in data set [1] is VEGFR2 autophosphorylation (pVEGFR2) in HUVEC cells (Homo sapiens (Human), UniProt P35968). The experiment in a line: Inhibition of VEGF-induced VEGFR2 autophosphorylation in HUVEC cells (ELISA). The following applies: 50 ng/ml human VEGF, compound 1 h. It is filed as cell-based. The text has this: Vascular endothelial growth factor receptor 2 (VEGFR2) is a primary receptor for VEGF-induced endothelial cell signaling. After ligand binding, VEGFR2 is autophosphorylated and activated. The main function of signaling from VEGFR2 is to induce vascularization during development and after tissue injury, and to bypass blocked blood vessels. Pathologically, VEGF and VEGFR2 are involved in tumor angiogenesis and vascular leakage. They are considered to be main participants in many different cancers and ocular diseases that accompany pathological neovascularization. This assay measured the ability of the compounds to inhibit VEGF-induced VEGFR2 autophosphorylation (pVEGFR2) in HUVEC cells by using ELISA.
Culture cells in a cell culture flask to reach a fusion degree of 60%-80% before cell inoculation. Dilute the cell suspension to […] with a pre-warmed complete medium. Add 80 μL of the cell suspension to all wells of a 96-well cell plate (Corning-3599); and incubate the plate overnight at 37° C. in the presence of 5% CO2. Dissolve the compound powder to 10 mM with DMSO and store it in a nitrogen cabinet. Compound dilution plate: Add a reference compound Ponatinib or a compound to be tested to a 96 V-well plate (Axygen-WIpp 2280) at concentrations achieved as follows: performing 3-fold gradient dilution starting from 5 mM (5 μL of 10 mM compound solution plus 5 μL of DMSO) for a total of 8 concentration points. […] Transfer 20 μL of the diluted compound from the intermediate plate to a cell plate. Then, incubate the cell plate for 1 h at 37° C. in the presence of 5% CO2. After the compound was treated for 1 h, add 25 μL of 250 ng/ml human VEGF at a final concentration of 50 ng/ml to a 96-well plate; and incubate the plate for 5 min at 37° C. in the presence of 5% CO2, centrifuge the plate for 10 min at 3,000 rpm, remove the medium and wash the cells once with 300 μL of pre-chilled DPBS per well. Then, centrifuge the plate for 10 min at 4,000 rpm, remove DPBS, and add 110 μL of pre-chilled 1× cell lysis buffer per well to the 96-well plate. Shake the plate for 40 min at 4° C. Then, freeze the plate in a refrigerator at −80° C. On the next day, remove the plate from the refrigerator at −80° C., thaw the plate, centrifuge the plate for 10 min at 3500 rpm, and add 100 μL of the supernatant per well to an ELISA plate. Seal the plate and incubate it for 2 h at 37° C. Wash the wells 4 times with 1× wash buffer. Add 100 μL of recombinant detection antibody per well. Seal the plate, incubate the plate for 1 h at 37° C., and repeat the step of plate washing. Add 100 μL of secondary antibody per well. Seal the plate, incubate the plate for 30 min at 37° C., and repeat the step of plate washing. Add 100 μL of TMB (protected from light) per well. Seal the plate, incubate the plate for 30 min at 37° C., and add 100 μL of the stop solution per well. Gently shake for 30 sec, measure the absorbance with a SpectraMax® 340 PC 384 Absorbance Microplate Reader within 30 min, and read an optical density value at 450 nm. Conduct data analysis using XL Fit software:
Conduct curve fitting using the 4 Parameter Logistic Model or Sigmoidal Dose-Response Model:
X indicating the log value of compound concentration, Y indicating the inhibition ratio (% inhibition), Top indicating the readout of the negative control wells, and bottom indicating the readout of the positive control well.

The target of a further data set is EGFR (Homo sapiens (Human), UniProt P00533). The experiment in a line: Kinase inhibition, Mobility Shift Assay (EGFR). The format is biochemical. A digest of the protocol:
(§1)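 Mobility shift assay: each kinase preincubated 10 min at room temperature with compound, then reacted with FAM-labeled peptide, MgCl2 and ATP at 28° C. for varying times. Substrate-to-product conversion read on Caliper; % inhibition normalised to no-kinase and DMSO controls, and IC50 fitted.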

Another data set addresses KDR (VEGFR2) (Homo sapiens (Human), UniProt P35968). The experiment in a line: Kinase inhibition, Mobility Shift Assay (VEGFR2). The format is biochemical. The essentials: as §1

SMILES strings stand for the structures.

VEGFR2 autophosphorylation (pVEGFR2) in HUVEC cells, sequence (P35968 20-1356): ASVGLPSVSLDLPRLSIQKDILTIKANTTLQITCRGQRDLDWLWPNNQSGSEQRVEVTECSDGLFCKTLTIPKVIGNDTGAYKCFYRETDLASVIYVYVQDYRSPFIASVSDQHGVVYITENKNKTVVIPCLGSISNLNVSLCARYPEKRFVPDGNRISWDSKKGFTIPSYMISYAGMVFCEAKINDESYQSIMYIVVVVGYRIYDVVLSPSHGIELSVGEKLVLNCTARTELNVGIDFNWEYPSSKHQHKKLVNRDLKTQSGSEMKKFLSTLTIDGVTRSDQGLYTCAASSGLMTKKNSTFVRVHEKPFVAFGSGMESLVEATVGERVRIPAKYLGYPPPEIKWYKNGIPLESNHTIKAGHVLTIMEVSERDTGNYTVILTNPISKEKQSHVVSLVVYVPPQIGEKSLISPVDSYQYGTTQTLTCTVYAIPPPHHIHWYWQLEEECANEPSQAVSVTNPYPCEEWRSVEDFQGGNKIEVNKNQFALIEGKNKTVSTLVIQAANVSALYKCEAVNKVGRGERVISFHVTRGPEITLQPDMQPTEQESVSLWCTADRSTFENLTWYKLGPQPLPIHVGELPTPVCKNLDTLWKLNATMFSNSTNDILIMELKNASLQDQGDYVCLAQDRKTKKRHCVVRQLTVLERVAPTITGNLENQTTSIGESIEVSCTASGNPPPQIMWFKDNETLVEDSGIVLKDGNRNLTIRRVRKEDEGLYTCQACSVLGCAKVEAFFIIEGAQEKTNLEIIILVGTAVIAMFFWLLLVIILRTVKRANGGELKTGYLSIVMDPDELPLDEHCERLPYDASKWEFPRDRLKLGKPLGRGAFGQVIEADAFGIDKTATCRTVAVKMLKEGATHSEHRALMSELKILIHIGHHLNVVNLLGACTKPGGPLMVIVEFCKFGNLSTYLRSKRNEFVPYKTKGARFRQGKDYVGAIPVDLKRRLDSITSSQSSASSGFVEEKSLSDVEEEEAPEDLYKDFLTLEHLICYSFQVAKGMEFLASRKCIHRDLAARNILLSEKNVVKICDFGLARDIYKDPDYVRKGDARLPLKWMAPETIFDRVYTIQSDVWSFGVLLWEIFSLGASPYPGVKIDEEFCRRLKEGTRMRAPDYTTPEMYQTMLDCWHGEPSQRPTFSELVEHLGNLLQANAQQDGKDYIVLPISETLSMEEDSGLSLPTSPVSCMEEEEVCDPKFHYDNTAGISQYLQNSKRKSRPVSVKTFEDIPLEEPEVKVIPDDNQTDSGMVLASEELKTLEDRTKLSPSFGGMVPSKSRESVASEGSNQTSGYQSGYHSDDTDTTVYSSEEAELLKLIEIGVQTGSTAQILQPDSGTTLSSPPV
EGFR, sequence (P00533 25-1210): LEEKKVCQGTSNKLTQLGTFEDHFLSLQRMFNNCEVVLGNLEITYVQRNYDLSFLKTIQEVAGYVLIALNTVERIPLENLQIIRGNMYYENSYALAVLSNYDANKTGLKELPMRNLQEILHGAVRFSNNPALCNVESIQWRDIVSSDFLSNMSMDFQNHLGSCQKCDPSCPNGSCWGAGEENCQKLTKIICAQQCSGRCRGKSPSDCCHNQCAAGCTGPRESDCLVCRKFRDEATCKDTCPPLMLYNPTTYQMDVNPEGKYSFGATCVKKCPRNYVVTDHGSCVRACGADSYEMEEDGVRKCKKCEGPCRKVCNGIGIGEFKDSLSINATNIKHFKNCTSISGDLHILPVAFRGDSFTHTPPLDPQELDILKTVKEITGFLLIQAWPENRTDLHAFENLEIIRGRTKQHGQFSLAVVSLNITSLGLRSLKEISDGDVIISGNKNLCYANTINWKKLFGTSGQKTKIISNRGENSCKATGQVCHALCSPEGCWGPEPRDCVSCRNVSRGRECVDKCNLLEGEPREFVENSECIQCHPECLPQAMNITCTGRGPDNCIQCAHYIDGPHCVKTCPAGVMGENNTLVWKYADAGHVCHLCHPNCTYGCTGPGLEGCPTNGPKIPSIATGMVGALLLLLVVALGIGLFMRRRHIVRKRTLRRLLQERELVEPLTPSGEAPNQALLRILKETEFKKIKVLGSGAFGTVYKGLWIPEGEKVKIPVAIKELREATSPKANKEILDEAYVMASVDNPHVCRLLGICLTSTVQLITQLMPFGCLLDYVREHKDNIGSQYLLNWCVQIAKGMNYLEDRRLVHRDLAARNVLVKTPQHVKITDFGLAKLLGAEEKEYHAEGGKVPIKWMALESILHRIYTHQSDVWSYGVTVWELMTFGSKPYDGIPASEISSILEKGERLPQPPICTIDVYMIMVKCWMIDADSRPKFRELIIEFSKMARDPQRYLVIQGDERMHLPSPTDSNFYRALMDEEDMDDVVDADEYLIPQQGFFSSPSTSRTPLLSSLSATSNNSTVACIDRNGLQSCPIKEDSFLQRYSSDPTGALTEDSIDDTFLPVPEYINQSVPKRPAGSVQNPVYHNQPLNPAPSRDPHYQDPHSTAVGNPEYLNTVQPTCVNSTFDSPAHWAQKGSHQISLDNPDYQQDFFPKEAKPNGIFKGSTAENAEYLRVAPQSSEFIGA
KDR (VEGFR2), sequence (P35968 790-1356): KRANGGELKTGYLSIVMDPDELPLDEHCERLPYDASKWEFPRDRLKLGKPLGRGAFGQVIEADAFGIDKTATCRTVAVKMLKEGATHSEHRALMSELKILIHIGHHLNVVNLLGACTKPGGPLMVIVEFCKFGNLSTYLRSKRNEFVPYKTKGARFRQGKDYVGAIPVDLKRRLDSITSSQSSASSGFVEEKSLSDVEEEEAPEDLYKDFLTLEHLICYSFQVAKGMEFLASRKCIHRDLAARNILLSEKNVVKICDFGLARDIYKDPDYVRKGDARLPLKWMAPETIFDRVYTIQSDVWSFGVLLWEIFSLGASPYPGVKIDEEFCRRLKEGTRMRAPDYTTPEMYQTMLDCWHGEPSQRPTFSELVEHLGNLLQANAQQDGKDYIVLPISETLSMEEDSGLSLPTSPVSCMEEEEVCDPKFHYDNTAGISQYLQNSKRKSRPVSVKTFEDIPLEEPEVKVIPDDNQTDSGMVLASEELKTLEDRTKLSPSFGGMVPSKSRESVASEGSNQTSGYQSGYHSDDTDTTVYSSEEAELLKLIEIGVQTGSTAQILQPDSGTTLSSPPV

With `CN1CCC(CCOc2ccc(/C=C/c3n[nH]c4cc(Sc5ccccc5C(=O)NC5CC5)ccc34)nc2)CC1` [Compound I-42, N-cyclopropyl-2-({3-[(E)-2-{5-[2-(1-methylpiperidin-4-yl)ethoxy]pyridin-2-yl}vinyl]-1H-indazol-6-yl}thio)benzamide], the fraction unbound at 2 h, 2 μM in the data set on melanin lay in the range of 0.01 to 0.05. The IC50 in data set [1] is not above 1 nM; on EGFR, more than 60000 nM; on KDR (VEGFR2) it was not above 1 nM.
With `CCNC(=O)c1ccccc1Sc1ccc2c(/C=C/c3ccc(CN(CC)CC)cn3)n[nH]c2c1` [Compound I-86, 2-({3-[(E)-2-{5-[(diethylamino)methyl]pyridin-2-yl}vinyl]-1H-indazol-6-yl}thio)-N-ethylbenzamide], the fraction unbound at 2 h, 2 μM in the data set with melanin lay within 0.01 to 0.05. For the same compound, the IC50 in data set [1] was not above 1 nM; on EGFR, 6000 to 60000 nM; on KDR (VEGFR2), not above 1 nM.
For `CCN(CC)CCc1ccc(/C=C/c2n[nH]c3cc(Sc4ccc(F)cc4C(=O)NC4CC4)ccc23)nc1` [Compound I-109, N-cyclopropyl-2-({3-[(E)-2-{5-[2-(diethylamino)ethyl]pyridin-2-yl}vinyl]-1H-indazol-6-yl}thio)-5-fluorobenzamide], the fraction unbound at 2 h, 2 μM in the data set on melanin was more than 0.05. In addition, the results for the IC50 (in data set [1]; at EGFR; on KDR (VEGFR2)) were 1 to 5 nM, 6000 to 60000 nM and not above 1 nM, respectively.
The matching figures for `CCN(CC)Cc1ccc(/C=C/c2n[nH]c3cc(Sc4ccccc4C(=O)NC4CC4)ccc23)nc1` [Compound I-78, N-cyclopropyl-2-({3-[(E)-2-{5-[(diethylamino)methyl]pyridin-2-yl}vinyl]-1H-indazol-6-yl}thio)benzamide]: 0.01 to 0.05, not above 1 nM, 6000 to 60000 nM and not above 1 nM.
On to `O=C(NC1CC1)c1ccccc1Sc1ccc2c(/C=C/c3ccc(CCN4CCCC4)cn3)n[nH]c2c1` [Compound I-55, N-cyclopropyl-2-({3-[(E)-2-{5-[2-(pyrrolidin-1-yl)ethyl]pyridin-2-yl}vinyl]-1H-indazol-6-yl}thio)benzamide], for which the fraction unbound at 2 h, 2 μM with melanin was in the range of 0.01 to 0.05. The IC50 is not above 1 nM in data set [1], 6000 to 60000 nM on EGFR and not above 1 nM on KDR (VEGFR2).
On to `O=C(NC1CC1)c1ccccc1Sc1ccc2c(/C=C/c3cnn(CCCN4CCCC4)c3)n[nH]c2c1` [Compound I-43, N-cyclopropyl-2-({3-[(E)-2-{1-[3-(pyrrolidin-1-yl)propyl]-1H-pyrazol-4-yl}vinyl]-1H-indazol-6-yl}thio)benzamide], for which, in the data set with melanin, the fraction unbound at 2 h, 2 μM fell in the range of 0.01 to 0.05. The results for the IC50 (in data set [1]; at EGFR; at KDR (VEGFR2)) were not above 1 nM, 6000 to 60000 nM and not above 1 nM, respectively.
In the case of `CCNC(=O)c1cccc(F)c1Sc1ccc2c(/C=C/c3cccc(CN4CCCC4)n3)n[nH]c2c1` [Compound I-113, N-ethyl-3-fluoro-2-({3-[(E)-2-{6-[(pyrrolidin-1-yl)methyl]pyridin-2-yl}vinyl]-1H-indazol-6-yl}thio)benzamide], the IC50 in data set [1] was more than 5 nM; on EGFR, 6000 to 60000 nM; at KDR (VEGFR2) it was more than 100 nM.
For `O=C(NC1CC1)c1cc(F)ccc1Sc1ccc2c(/C=C/c3ccc(CN4CCCC4)cn3)n[nH]c2c1` [Compound I-80, N-cyclopropyl-5-fluoro-2-({3-[(E)-2-{5-[(pyrrolidin-1-yl)methyl]pyridin-2-yl}vinyl]-1H-indazol-6-yl}thio)benzamide], the fraction unbound at 2 h, 2 μM in the data set with melanin is 0.01 to 0.05. For the same compound, the IC50 in data set [1] was not above 1 nM; at EGFR, 6000 to 60000 nM; at KDR (VEGFR2), not above 1 nM.
Consider `O=C(NC1CC1)c1ccccc1Sc1ccc2c(/C=C/c3cnn(CCN4CCCC4)c3)n[nH]c2c1` [Compound I-61, N-cyclopropyl-2-({3-[(E)-2-{1-[2-(pyrrolidin-1-yl)ethyl]-1H-pyrazol-4-yl}vinyl]-1H-indazol-6-yl}thio)benzamide], for which, in the data set with melanin, the fraction unbound at 2 h, 2 μM fell in the range of 0.01 to 0.05. Also, the IC50 was not above 1 nM in data set [1], 6000 to 60000 nM on EGFR and 1 to 10 nM at KDR (VEGFR2).
For `O=C(NC1CC1)c1cccc(F)c1Sc1ccc2c(/C=C/c3ccc(CN4CCCC4)cn3)n[nH]c2c1` [Compound I-67], in that order: more than 0.05, not above 1 nM, 6000 to 60000 nM and 1 to 10 nM.
The matching figures for `CCN(CC)Cc1ccc(/C=C/c2n[nH]c3cc(Sc4ccccc4C(=O)NCC(F)(F)F)ccc23)nc1` [Compound I-100, 2-({3-[(E)-2-{5-[(diethylamino)methyl]pyridin-2-yl}vinyl]-1H-indazol-6-yl}thio)-N-(2,2,2-trifluoroethyl)benzamide]: more than 0.05, not above 1 nM, 6000 to 60000 nM and 1 to 10 nM.
For `O=C(NC1CC1)c1ccccc1Sc1ccc2c(/C=C/c3ccc(CN4CCCC4)cn3)n[nH]c2c1` [Compound I-41, N-cyclopropyl-2-({3-[(E)-2-{5-[(pyrrolidin-1-yl)methyl]pyridin-2-yl}vinyl]-1H-indazol-6-yl}thio)benzamide], in that order: more than 0.05, not above 1 nM, 6000 to 60000 nM and not above 1 nM.
In the case of `CNC(=O)c1ccccc1Sc1ccc2c(/C=C/c3ccc(CCN4CCCC4)cn3)n[nH]c2c1` [Compound I-107, N-methyl-2-({3-[(E)-2-{5-[2-(pyrrolidin-1-yl)ethyl]pyridin-2-yl}vinyl]-1H-indazol-6-yl}thio)benzamide], the fraction unbound at 2 h, 2 μM in the data set with melanin lay within 0.01 to 0.05. The figures for the IC50 (in data set [1]; on EGFR; on KDR (VEGFR2)) were not above 1 nM, 6000 to 60000 nM and 1 to 10 nM, respectively.
`CCN(CC)Cc1ccc(/C=C/c2n[nH]c3cc(Sc4ccccc4C(=O)NC)ccc23)nc1` [Compound I-90, 2-({3-[(E)-2-{5-[(diethylamino)methyl]pyridin-2-yl}vinyl]-1H-indazol-6-yl}thio)-N-methylbenzamide]: the fraction unbound at 2 h, 2 μM with melanin lay in the range of 0.01 to 0.05. Moreover, the half-maximal inhibitory concentration (IC50) in data set [1] was not above 1 nM; at EGFR, 6000 to 60000 nM; at KDR (VEGFR2) it was 1 to 10 nM.
With `CCN(CC)Cc1ccc(/C=C/c2n[nH]c3cc(Sc4cc(F)ccc4C(=O)NC4CC4)ccc23)nc1` [Compound I-83, N-cyclopropyl-2-({3-[(E)-2-{5-[(diethylamino)methyl]pyridin-2-yl}vinyl]-1H-indazol-6-yl}thio)-4-fluorobenzamide], in the data set on melanin, the fraction unbound at 2 h, 2 μM was more than 0.05. Further, the IC50 in data set [1] was not above 1 nM; at EGFR it was 6000 to 60000 nM; on KDR (VEGFR2), not above 1 nM.
For `O=C(NC1CC1)c1ccccc1Sc1ccc2c(/C=C/c3cc(OCCN4CCCC4)ccn3)n[nH]c2c1` [Compound I-110, N-cyclopropyl-2-({3-[(E)-2-{4-[2-(pyrrolidin-1-yl)ethoxy]pyridin-2-yl}vinyl]-1H-indazol-6-yl}thio)benzamide], the IC50 was 1 to 5 nM in data set [1], 6000 to 60000 nM on EGFR and 1 to 10 nM at KDR (VEGFR2).

The values are drawn from US20260049071A1, “PROTEIN TYROSINE KINASE INHIBITOR AND MEDICAL USE THEREOF” (BEYANG THERAPEUTICS CO., LTD., priority 2022, published 2026).
